Data from patent EP4644383A1 (Jiangsu Yahong Meditech Co., Ltd., priority 2022, dated 2024).

Experiments:
FGFR1 = biological target: T1, FGFR1 (Homo sapiens, UniProt P11362); experiment: FGFR1 kinase activity inhibition assay (LanthaScreen TR-FRET); assay type: biochemical; conditions: FGFR1 kinase, TR-FRET; read-out: IC50 (nM) FGFR1
T1 construct: cytoplasmic domain [398-822 (terminal) amino acids]; purchased Carna 08-133
Outline: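 Emission ratio 520 nm/495 nm by TR-FRET after stopping reaction with 10 mM EDTA and 60 min incubation at 22°C. Inhibition normalized between no-enzyme (min) and DMSO (max) controls, then fitted to a four-parameter curve (Top, Bottom, HillSlope).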

FGFR3 = biological target: T2, FGFR3 (Homo sapiens, UniProt P22607); experiment: FGFR3 kinase activity inhibition assay (LanthaScreen TR-FRET); assay type: biochemical; conditions: for IC50: FGFR3 kinase, TR-FRET, read-out: IC50 (nM) FGFR3; for Selectivity (X) FGFR1/FGFR3: ratio of IC50 FGFR1/FGFR3, selectivity towards FGFR3
T2 construct: FGFR3's cytoplasmic domain [436-806 (terminal) amino acids]; purchased Carna 08-135
T2 sequence (P22607 436-806): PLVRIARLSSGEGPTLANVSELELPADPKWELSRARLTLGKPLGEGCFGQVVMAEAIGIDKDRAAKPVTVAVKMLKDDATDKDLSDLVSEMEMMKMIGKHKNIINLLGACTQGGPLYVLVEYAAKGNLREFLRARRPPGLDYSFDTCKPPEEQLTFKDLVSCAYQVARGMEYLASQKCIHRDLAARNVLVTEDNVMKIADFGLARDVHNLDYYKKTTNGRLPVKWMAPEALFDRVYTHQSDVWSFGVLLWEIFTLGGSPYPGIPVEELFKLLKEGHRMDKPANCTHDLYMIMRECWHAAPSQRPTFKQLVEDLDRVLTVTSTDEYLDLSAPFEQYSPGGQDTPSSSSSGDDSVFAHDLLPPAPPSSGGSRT
Outline: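 Read-out is TR-FRET, with the 520 nm/495 nm emission ratio normalised to DMSO (max) and enzyme-free (min) controls. Enzyme was the FGFR3 cytoplasmic domain, residues 436-806. EDTA (10 mM) stopped the reaction, followed by 60 min at 22 °C before reading.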

T1 sequence (P11362 398-822): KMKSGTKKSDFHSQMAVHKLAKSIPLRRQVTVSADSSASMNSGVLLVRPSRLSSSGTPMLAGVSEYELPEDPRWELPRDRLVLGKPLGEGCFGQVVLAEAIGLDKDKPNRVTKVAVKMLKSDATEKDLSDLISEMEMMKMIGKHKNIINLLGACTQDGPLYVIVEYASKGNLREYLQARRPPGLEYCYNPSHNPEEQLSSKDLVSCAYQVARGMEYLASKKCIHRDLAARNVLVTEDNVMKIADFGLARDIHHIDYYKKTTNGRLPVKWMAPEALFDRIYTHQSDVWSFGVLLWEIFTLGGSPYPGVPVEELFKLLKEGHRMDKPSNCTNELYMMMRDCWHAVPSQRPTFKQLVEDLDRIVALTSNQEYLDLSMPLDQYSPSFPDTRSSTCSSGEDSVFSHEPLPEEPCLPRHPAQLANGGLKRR

SMILES | IC50 (FGFR1) | IC50 (FGFR3) | Selectivity (X) FGFR1/FGFR3 (FGFR3)
CC(Oc1ccc2[nH]nc(-c3cnn(C4CN(C(=O)C(C)(C)N)C4)c3)c2c1)c1c(C(F)F)ccc2ncccc12 (stereo not drawn) [Example 208, 2-amino-1-(3-(4-(5-(1-(6-(difluoromethyl)quinoline-5-yl)ethoxy)-1H-indazol-3-yl)-1H-pyrazol-1-yl)azetidin-1-yl)-2-methylpropan-1-one] | 10 to 100 nM | < 1 nM | B (B represents 20 ≤ multiple X<50)
CC(Oc1ccc2[nH]nc(-c3cnn(C4CN(C(=O)C(C)(C)O)C4)c3)c2c1)c1cc(Cl)cc2nccnc12 (stereo not drawn) [Example 209, 1-(3-(4-(5-(1-(7-chloroquinoxalin-5-yl)ethoxy)-1H-indazol-3-yl)-1H-pyrazol-1-yl)azetidin-1-yl)-2-hydroxy-2-methylpropan-1-one] | 10 to 100 nM | < 1 nM | B (B represents 20 ≤ multiple X<50)
CC(Oc1ccc2[nH]nc(-c3cnn(C4CN(C(=O)C(C)(C)N)C4)c3)c2c1)c1cc(Cl)cc2nccnc12 (stereo not drawn) [Example 210, 2-amino-1-(3-(4-(5-(1-(7-chloroquinoxalin-5-yl)ethoxy)-1H-indazol-3-yl)-1-pyrazol-1-yl)azetidin-1-yl)-2-methylpropan-1-one] | 1 to 10 nM | < 1 nM | A (A represents 1 ≤ multiple X<20)
CC(Oc1ccc2[nH]nc(-c3cnn(C4CN(C(=O)C(C)(C)N)C4)c3)c2c1)c1cc(Cl)cc2ncccc12 (stereo not drawn) [Example 211, 2-amino-1-(3-(4-(5-(1-(7-chloroquinolin-5-yl)ethoxy)-1H-indazol-3-yl)-1-pyrazol-1-yl)azetidin-1-yl)-2-methylpropan-1-one] | 10 to 100 nM | < 1 nM | B (B represents 20 ≤ multiple X<50)
CC(Oc1ccc2[nH]nc(-c3cnn(C4CN(CC(N)=O)C4)c3)c2c1)c1cccc2nccnc12 (stereo not drawn) [Example 214, 2-(3-(4-(5-(1-(quinoxalin-5-yl)ethoxy)-1H-indazol-3-yl)-1H-pyrazol-1-yl)azetidin-1-yl)acetamide] | 10 to 100 nM | < 1 nM | B (B represents 20 ≤ multiple X<50)
Cc1cc(C(C)Oc2ccc3[nH]nc(-c4cnn(C5CN(C(=O)C(C)(C)N)C5)c4)c3c2)c2cccnc2c1 (stereo not drawn) [Example 215, 2-amino-2-methyl-1-(3-(4-(5-(1-(7-methylquinolin-5-yl)ethoxy)-1H-indazol-3-yl)-1H-pyrazol-1-yl)azetidin-1-yl)propan-1-one] | 10 to 100 nM | < 1 nM | B (B represents 20 ≤ multiple X<50)
CNC(C)(C)C(=O)N1CC(n2cc(-c3n[nH]c4ccc(OC(C)c5cccc6nccnc56)cc34)cn2)C1 (stereo not drawn) [Example 216, 2-methyl-2-(methylamino)-1-(3-(4-(5-(1-(quinoxalin-5-yl)ethoxy)-1H-indazol-3-yl)-1H-pyrazol-1-yl)azetidin-1-yl)propan-1-one] | 1 to 10 nM | < 1 nM | A (A represents 1 ≤ multiple X<20)
Cc1ccc2ncccc2c1C(C)Oc1ccc2[nH]nc(-c3cnn(C4CN(C(=O)C(C)(C)O)C4)c3)c2c1 (stereo not drawn) [Example 217, 2-hydroxy-2-methyl-1-(3-(4-(5-(1-(6-methylquinolin-5-yl)ethoxy)-1H-indazol-3-yl)-1H-pyrazol-1-yl)azetidin-1-yl)propan-1-one] | 10 to 100 nM | < 1 nM | C (C represents 50 ≤ multiple X<100)
CC(Oc1ccc2[nH]nc(-c3cnn(C4CN(C(=O)C5CC5)C4)c3)c2c1)c1cccc2nccnc12 (stereo not drawn) [Example 219, cyclopropyl(3-(4-(5-(1-(quinoxalin-5-yl)ethoxy)-1H-indazol-3-yl)-1H-pyrazol-1-yl)azetidin-1-yl)methanone] | 10 to 100 nM | < 1 nM | A (A represents 1 ≤ multiple X<20)
CC(Oc1ccc2[nH]nc(-c3cnn(CCCS(C)(=O)=O)c3)c2c1)c1cc(Cl)cc2nccnc12 (stereo not drawn) [Example 220, 7-chloro-5-(1-((3-(1-(3-(methylsulfonyl)propyl)-1H-pyrazol-4-yl)-1H-indazol-5-yl)oxy)ethyl)quinox aline] | 10 to 100 nM | < 1 nM | C (C represents 50 ≤ multiple X<100)
CC(Oc1ccc2[nH]nc(-c3cnn(C4CN(C(=O)C5(O)CCC5)C4)c3)c2c1)c1cccc2nccnc12 (stereo not drawn) [Example 221, (1-hydroxycyclobutyl)(3-(4-(5-(1-(quinoxalin-5-yl)ethoxy)-1H-indazol-3-yl)-1H-pyrazol-1-yl)azetidin-1-yl)methanone] | 1 to 10 nM | < 1 nM | B (B represents 20 ≤ multiple X<50)
CC(Oc1ccc2[nH]nc(-c3cnn(C4CN(C(=O)C5(O)CC5)C4)c3)c2c1)c1cc(Cl)cc2nccnc12 (stereo not drawn) [Example 222, (3-(4-(5-(1-(7-chloroquinoxalin-5-yl)ethoxy)-1H-indazol-3-yl)-1H-pyrazol-1-yl)azetidin-1-yl)(1-hydroxycyclopropyl)methanone] | 10 to 100 nM | < 1 nM | B (B represents 20 ≤ multiple X<50)
Cc1cc2nccnc2c(C(C)Oc2cc(F)c3[nH]nc(-c4cnn(C)c4)c3c2)n1 (stereo not drawn) [Example 225, 5-(1-((7-fluoro-3-(1-methyl-1H-pyrazol-4-yl)-1H-indazol-5-yl)oxy)ethyl)-7-methylpyridino[3,4-b]pyrazine] | 1 to 10 nM | < 1 nM | A (A represents 1 ≤ multiple X<20)
COc1cc(OC(C)c2cc(Cl)cc3nccnc23)cc2c(-c3cnn(C)c3)n[nH]c12 (stereo not drawn) [Example 226] | > 100 nM | 1 to 10 nM | B (B represents 20 ≤ multiple X<50)
CC(Oc1cc(F)c2[nH]nc(-c3cnn(C)c3)c2c1)c1cc(Cl)cc2nccnc12 (stereo not drawn) [Example 228, 7-chloro-5-(1-((7-fluoro-3-(1-methyl-1H-pyrazol-4-yl)-1H-indazol-5-yl)oxy)ethyl)qu inoxaline] | 10 to 100 nM | 1 to 10 nM | B (B represents 20 ≤ multiple X<50)
CC(Oc1ccc2[nH]nc(-c3cnn(C4CC(S(C)(=O)=O)C4)c3)c2c1)c1cccc2nccnc12 (stereo not drawn) [Example 229, 5-(1-((3-(1-(3-(methylsulfonyl)cyclobutyl)-1H-pyrazol-4-yl)-1H-indazol-5-yl)oxy)ethyl)quinoxaline] | 10 to 100 nM | < 1 nM | B (B represents 20 ≤ multiple X<50)
CC(Oc1ccc2[nH]nc(-c3cnn(C)c3)c2c1)c1nc(C2CC2)cc2nccnc12 (stereo not drawn) [Example 230, 7-cyclopropyl-5-(1-((3-(1-methyl-1H-pyrazol-4-yl)-1H-indazol-5-yl)oxy)ethyl)pyri dino[3,4-b]pyrazine] | 1 to 10 nM | < 1 nM | A (A represents 1 ≤ multiple X<20)
CC(Oc1ccc2[nH]nc(-c3cnn(C)c3)c2c1)c1c(C(F)F)ccc2nccnc12 (stereo not drawn) [Example 232] | 1 to 10 nM | < 1 nM | A (A represents 1 ≤ multiple X<20)
CC(C)c1cc2nccnc2c(C(C)Oc2ccc3[nH]nc(-c4cnn(C)c4)c3c2)n1 (stereo not drawn) [Example 237] | 10 to 100 nM | 1 to 10 nM | B (B represents 20 ≤ multiple X<50)
CC(Oc1ccc2[nH]nc(-c3cnn(C4CN(C(=O)C5CC5)C4)c3)c2c1)c1cc(Cl)cc2nccnc12 (stereo not drawn) [Example 238, (3-(4-(5-(1-(7-chloroquinoxalin-5-yl)ethoxy)-1H-indazol-3-yl)-1H-pyrazol-1-yl)azetidin-1-yl)(cyclopropyl) methanone] | 10 to 100 nM | < 1 nM | B (B represents 20 ≤ multiple X<50)
CC(Oc1ccc2[nH]nc(-c3cnn(C4COC4)c3)c2c1)c1cc(Cl)cc2nccnc12 (stereo not drawn) [Example 239] | 10 to 100 nM | 1 to 10 nM | C (C represents 50 ≤ multiple X<100)
CC(Oc1ccc2[nH]nc(-c3cnn(C4CN(C=O)C4)c3)c2c1)c1cc(Cl)cc2nccnc12 (stereo not drawn) [Example 240, 3-(4-(5-(1-(7-chloroquinoxalin-5-yl)ethoxy)-1H-indazol-3-yl)-1H-pyrazol-1-yl)azetidine-1-carbaldehyde] | 10 to 100 nM | < 1 nM | B (B represents 20 ≤ multiple X<50)
